The source of these data is PMC6458995, “MAP4K4 Inhibition Promotes Survival of Human Stem Cell-Derived Cardiomyocytes and Reduces Infarct Size In Vivo” (Cell Stem Cell, 2019).

One experiment concerns the target T1, recombinant human MAP4K4 (Homo sapiens, UniProt O95819).
T1 construct: Human MAP4K4 kinase domain (aa 1-328); purchased Invitrogen PV3687
The experiment can be described thus: In vitro MAP4K4 kinase activity assay (HTRF Transcreener ADP). It is filed as biochemical. Conditions: MAP4K4; HTRF Transcreener ADP assay; read-out: pIC50 (converted). Here is the method:
MAP4K4 kinase activity was monitored using the CisBio HTRF Transcreener ADP assay, a competitive immunoassay with a reproducible Z’ > 0.6. In the detection step, endogenous ADP and d2-labeled ADP compete for binding an anti-ADP monoclonal antibody labeled with Eu^3+ cryptate. […] Assays were run in Greiner low volume plates with a final reaction volume of 10 μl. Percent inhibition was calculated from 100% activity of MAP4K4 (DMSO only) and 0% activity (no enzyme added). Data were either reported as % inhibition at a single dose or as pIC50 values derived from dose response curves (pIC50 = -log[IC50]).
For orientation: In TR-FRET formats the signal depends on donor and acceptor labels being close together.

In another experiment the test system is vCor.4U cells. The experiment can be described thus: Mitochondrial function (Seahorse XFe24, OCR and ECAR). The format is cell-based, human. Particulars: menadione 15 μM; 2 h. Here is the method:
Mitochondrial function in hiPSC-CMs was determined using a Seahorse XFe24 Analyzer. vCor.4U cells (60,000 well^-1) were transferred to 0.1% gelatin-coated XF24 plates and maintained for 5 d, as described above. On day 6, DMX-5804 was added 45 min prior to challenge with menadione for 2 h. The medium was replaced 1 hr before the assay, using bicarbonate-free Seahorse assay medium (8.3 g L^-1 DMEM Base (Sigma-Aldrich), 10 mM glucose, 2 mM L-alanyl-L-glutamine dipeptide (Glutamax-1, GIBCO), 1 mM sodium pyruvate (GIBCO), pH 7.4). Cells were maintained at 37°C without supplemental CO2 starting 1 hr before the assay (IL10 incubator, VWR). For each state measured, three assay cycles were performed (4 min mixing, 2 min wait, and 2 min measurement periods, with readings every 15 s). The basal oxygen consumption rate (OCR) and extracellular acidification rate (ECAR) were determined, followed by sequential injection of 1 μM oligomycin A (Abcam) to inhibit ATP synthase, 0.5 μM […] (FCCP; Abcam) to uncouple oxidative phosphorylation, and 1 μM antimycin A/rotenone (Sigma, Abcam) to inhibit mitochondrial complex III and I. For each condition, 12 wells were tested, comprising 4 independent experiments.

A further experiment has as its system vCor.4U hiPSC-CMs. Put plainly: Calcium transients (FLIPR Tetra, EarlyTox Cardiotoxicity dye). The format is cell-based, human. Conditions: Homo sapiens; calcium cycling; vCor.4U; 24 h; read-out: half-maximal loss of peak area and peak height. How it is done:
Calcium transients in hiPSC-CMs were assessed using FLIPR Tetra instrumentation and Early Tox Cardiotoxicity kits (Molecular Devices). vCor.4U cells were subjected to graded concentrations of menadione and the MAP4K4 inhibitors as described for the viability assays. Compound concentrations and time course are denoted in the figure and figure legend. Vehicle controls were used throughout. Cells were incubated for 2-3 hr at 37°C in 5% CO2, using 3 μL well^-1 of EarlyTox Cardiotoxicity Kit concentrate as the fluorescent calcium indicator dye. Plates were then removed from the incubator and allowed to reach room temperature. Intracellular calcium oscillations were monitored using a FLIPR Tetra system with excitation LED bank 470-495 nm and emission filter set 515-575 nm (Molecular Devices). Fluorescence intensity signals were acquired for 600 reads at 1.2 ms intervals. Beat frequency, median peak height, median peak width and total peak area were calculated and compared with the baseline control and with menadione alone. Protection of calcium cycling by DMX-4804 was confirmed in 3 independent experiments with overlapping conditions, and results are shown for a full dose-response study, analyzing 4 wells for each point.

The next experiment relates to vCor.4U cardiomyocytes. The experiment can be described thus: CellTiter-Glo viability after oxidative stress (H2O2 or menadione). The format is cell-based, human. Particulars: vCor.4U; 400 μM H2O2 1 h after compound; 10 μM. Here is the method: vCor.4U cardiomyocytes were cultured, except where noted, on white (viability) or black (FLIPR) clear-bottom 384-well plates, treated for 1 hr with […] fibronectin (Sigma-Aldrich). To minimize batch to batch variation, thawed cells first were transferred from cryo-vials into sterile 250 mL flasks containing pre-warmed vCor.4U maintenance medium, for 3-5 d. The cells were then plated at 1000 well^-1 for viability assays or 5000 cells well^-1 for FLIPR experiments, all in 40 μl well^-1 of the maintenance medium. Cells were cultured in Axiogenesis complete medium followed by incomplete medium, were subjected to oxidative stress ± test compounds on day 3, and were assayed on day 4 (Figures 4D and 4E). Alternatively, complete medium was replaced on day 2 of culture with 40 μl of DMEM high Glucose (no FCS or pyruvate), followed by removal and replacement of 20 μl every 2 d for 10 d (Figures 4A–4C).
H2O2, menadione (Sigma-Aldrich), doxorubicin (Calbiochem), and C2-ceramide (N-acetyl-D-sphingosine) were used at the indicated concentrations. MAP4K4 inhibitors were serially diluted in DMSO, transferred to an intermediate plate using assay medium as a diluting agent, and added at a final concentration of 0.1% DMSO. MAP4K4 inhibitors were added to cultured cardiomyocytes 1 hr before the cell death inducers, except where noted, and remained present for the duration of the experiment.
For cell-based dose-response experiments, MAP4K4 inhibitors were prepared in 96-well polypropylene plates as serial dilutions in DMSO of 10 mM stock solutions. To a sterile 96-well intermediate plate, 1 μl of each well was added to 99 μl of medium, the samples were mixed, and 5 μl well^-1 from the intermediate plate were transferred to the cultured cells (final concentration, 0.1% DMSO; final top concentration of inhibitor, 10 μM). Assay plates were gently centrifuged then incubated for 1 hr at 37°C. The death triggers menadione, H2O2 and doxorubicin were prepared fresh on the day of treatment at 10x the final concentrations and 5 μl well^-1 were added as appropriate. Assay plates were gently centrifuged and then incubated at 37°C for the duration of treatment.
Assay plates were removed from the incubator, allowed to reach room temperature, inoculated with 20 μl well^-1 CTG reagent (Promega), and gently agitated for 30 min. Prior to adding CTG, 2 μl well^-1 of the culture medium was removed and placed into a white 384-well low volume plate for measurement of cardiac troponin release by AlphaLISA (below). Luminescence due to ATP, proportional to cell number, was captured on a PHERAstar Plus microplate reader (BMG Labtech). Normalized values were plotted against the log concentration of death signal or inhibitor, and a 4-parameter fit was used to identify IC50 and EC50, respectively.
A general note: In ATP-based viability assays light output follows the ATP content of the culture.

T1 sequence (O95819 1-328): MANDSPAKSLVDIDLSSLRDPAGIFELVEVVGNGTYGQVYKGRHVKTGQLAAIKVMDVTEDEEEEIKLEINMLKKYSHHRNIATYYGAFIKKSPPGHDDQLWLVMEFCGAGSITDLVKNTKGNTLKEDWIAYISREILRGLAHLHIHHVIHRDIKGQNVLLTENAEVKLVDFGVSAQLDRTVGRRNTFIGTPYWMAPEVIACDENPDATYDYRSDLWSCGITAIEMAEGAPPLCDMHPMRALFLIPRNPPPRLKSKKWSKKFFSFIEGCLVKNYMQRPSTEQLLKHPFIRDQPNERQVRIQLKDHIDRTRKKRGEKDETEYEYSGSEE

Turning to `O=c1[nH]cnc2c1ccn2-c1ccccc1` [DMX-4815], the IC50 on recombinant human MAP4K4 is 7.94 µM.
Consider `O=c1[nH]cnc2[nH]cc(-c3ccccc3)c12` [DMX-4850], for which the IC50 on recombinant human MAP4K4 was 0.794 µM.
With `CC1=CC(=O)c2ccccc2C1=O` [menadione], the “Maximum oxidative capacity, of control levels” value with vCor.4U cells is recorded as 15%. Moreover, in the experiment with vCor.4U hiPSC-CMs, the IC50 was determined as 16 µM.
On to `COCCc1ccc(OCC(O)CNC(C)C)cc1` (centres unmarked) [metoprolol], for which the “human cardiomyocyte survival (rescue of viability)” value with vCor.4U cardiomyocytes was “promoted”.
